Here are results for eight compounds from PubChem BioAssay (NCI).

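Method: 48-hour compound exposure of cells in 96-well plates, five concentrations, linear interpolation of endpoints. At the GI50, growth is halved. TGI: concentration producing complete growth inhibition.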

Among the test systems are A549 NSCLC; DU-145 prostate; HT29 colon; KM12 colon; MOLT-4 leukemia; SK-MEL-2 melanoma; SK-OV-3 ovarian; SN12C renal; SW-620 colon; HCT-15 colon.
Holding throughout (assay): NCI-60 cell line screen, 48 h

In the case of `O=C1CCCC/C1=C/C=C/c1ccccc1`, the TGI in the experiment on A549 NSCLC, with DU-145 prostate, in the experiment on HT29 colon, with KM12 colon, in the experiment on MOLT-4 leukemia and with SK-MEL-2 melanoma was > 100 µM throughout. Further, the TGI with SK-OV-3 ovarian, with SN12C renal and in the experiment on SW-620 colon was > 100 µM throughout.
Consider `COC(=O)CCC(=O)c1c(C)[nH]c(/C=C2\N=C(c3ccc[nH]3)C=C2OC)c1C`, for which the GI50 is 3.08 µM in the experiment with A549 NSCLC; 0.344 µM in the experiment with DU-145 prostate; 0.292 µM with HCT-15 colon; 0.0737 µM in the experiment with HT29 colon; 0.36 µM in the experiment on KM12 colon; 0.405 µM in the experiment with MOLT-4 leukemia. In addition, the GI50 in the experiment with SK-MEL-2 melanoma is 0.349 µM; in the experiment on SK-OV-3 ovarian, 6.16 µM; in the experiment with SN12C renal, 1.45 µM; in the experiment with SW-620 colon, 0.318 µM. Also, the TGI amounted to 10.8 µM with A549 NSCLC; 1.8 µM in the experiment on DU-145 prostate; 1.89 µM in the experiment with HCT-15 colon; 1.48 µM with HT29 colon; 1.72 µM in the experiment with KM12 colon; 1.85 µM in the experiment on MOLT-4 leukemia. Further, the TGI in the experiment with SK-MEL-2 melanoma turned out to be 1.74 µM; in the experiment on SK-OV-3 ovarian, 13.8 µM; with SN12C renal, 5.38 µM; in the experiment with SW-620 colon, 1.32 µM.
In the case of `COc1ccc2c(c1)c(C1(c3cn(C)c4ccc(OC)cc34)C(=O)Nc3ccc(F)cc31)cn2C`, the GI50 was 11.5 µM in the experiment with DU-145 prostate; 5 µM with HCT-15 colon; 3.52 µM in the experiment with HT29 colon; 5.63 µM with KM12 colon; 4.57 µM in the experiment on MOLT-4 leukemia; 3.62 µM in the experiment on SK-MEL-2 melanoma. For the same compound, the GI50 in the experiment with SK-OV-3 ovarian is 12.9 µM; in the experiment on SN12C renal it was 4.82 µM; with SW-620 colon, 7.48 µM. The TGI with DU-145 prostate is > 100 µM; in the experiment on HCT-15 colon, > 100 µM; in the experiment on HT29 colon it was 23 µM; in the experiment on KM12 colon, > 100 µM; in the experiment on MOLT-4 leukemia, 50.1 µM; in the experiment on SK-MEL-2 melanoma it was 9.64 µM. For the same compound, the TGI is > 100 µM in the experiment on SK-OV-3 ovarian, 31.5 µM in the experiment with SN12C renal and > 100 µM in the experiment with SW-620 colon.
Regarding `CCCN(CCC)c1ccc(CO)c(C)c1`, the GI50 in the experiment with A549 NSCLC is 83.3 µM; in the experiment with DU-145 prostate, > 100 µM; with HCT-15 colon, 51.9 µM; with HT29 colon it was 90.2 µM; with KM12 colon, > 100 µM; in the experiment on MOLT-4 leukemia it was 26.8 µM. For the same compound, the GI50 with SK-MEL-2 melanoma is 25.7 µM; with SK-OV-3 ovarian it was > 100 µM; in the experiment on SN12C renal, 79.4 µM; in the experiment on SW-620 colon, > 100 µM. For the same compound, the TGI with A549 NSCLC, in the experiment on DU-145 prostate, in the experiment with HCT-15 colon, in the experiment on HT29 colon, in the experiment with KM12 colon and in the experiment on MOLT-4 leukemia was > 100 µM each time. Moreover, the TGI is 78 µM in the experiment with SK-MEL-2 melanoma, > 100 µM in the experiment with SK-OV-3 ovarian, > 100 µM in the experiment with SN12C renal and > 100 µM in the experiment on SW-620 colon.
Turning to `CCC[C@H](N[C@@H]1CCc2cc(F)cc(F)c2C1)C(=O)Nc1cn(C(C)(C)CNCC(C)(C)C)cn1`, the GI50 in the experiment on A549 NSCLC was 23.2 µM; in the experiment with DU-145 prostate, 29.7 µM; in the experiment with HCT-15 colon, 15.7 µM; in the experiment with HT29 colon, 11.7 µM; in the experiment with KM12 colon it was 24.1 µM; in the experiment with MOLT-4 leukemia, 8.03 µM. The GI50 in the experiment with SK-MEL-2 melanoma is 16.1 µM; with SK-OV-3 ovarian it was 26.3 µM; in the experiment on SN12C renal, 24.8 µM; with SW-620 colon, 25 µM. For the same compound, the TGI was > 100 µM in the experiment with A549 NSCLC; > 100 µM with DU-145 prostate; 75.2 µM with HCT-15 colon; 30 µM in the experiment with HT29 colon; > 88.7 µM in the experiment with KM12 colon; > 68.1 µM in the experiment with MOLT-4 leukemia. For the same compound, the TGI is 35.4 µM with SK-MEL-2 melanoma, > 100 µM with SK-OV-3 ovarian, > 100 µM with SN12C renal and > 100 µM with SW-620 colon.
In the case of `CN1CCN(c2ccc3nc(-c4cc(C(C)(C)C)c(O)c(C(C)(C)C)c4)[nH]c3c2)CC1`, the GI50 in the experiment with A549 NSCLC was 3.26 µM; with DU-145 prostate it was 4.66 µM; in the experiment with HCT-15 colon, 1.71 µM; in the experiment with HT29 colon, 2.1 µM; with KM12 colon, 1.8 µM; with MOLT-4 leukemia, 2.2 µM. Moreover, the GI50 in the experiment on SK-MEL-2 melanoma is 2.38 µM; in the experiment with SK-OV-3 ovarian, 8.83 µM; in the experiment on SN12C renal, 4.64 µM; in the experiment with SW-620 colon it was 2.33 µM. Moreover, the TGI stood at 11.5 µM with A549 NSCLC; 16 µM with DU-145 prostate; 3.49 µM in the experiment with HCT-15 colon; 4.41 µM in the experiment with HT29 colon; 4.32 µM in the experiment on KM12 colon; 5.55 µM in the experiment on MOLT-4 leukemia. Moreover, the TGI with SK-MEL-2 melanoma was found to be 5.49 µM; in the experiment on SK-OV-3 ovarian, 21.8 µM; with SN12C renal, 16.5 µM; in the experiment on SW-620 colon, 4.06 µM.
Regarding `COc1ccc2c(c1)CC[C@@H]1[C@@H]2CC[C@@]2(C)[C@H]1CC1(CCCCC1)[C@@H]2O`, the GI50 in the experiment on A549 NSCLC was 5.58 µM; with DU-145 prostate it was 15.2 µM; with HCT-15 colon it was 2.59 µM; in the experiment with HT29 colon, 1.81 µM; in the experiment on KM12 colon it was 7.91 µM; with SK-MEL-2 melanoma, 20.4 µM. Moreover, the GI50 is 21.6 µM in the experiment with SK-OV-3 ovarian and 20.4 µM with SN12C renal. The TGI in the experiment with A549 NSCLC turned out to be 26.8 µM; with DU-145 prostate it was 29.3 µM; in the experiment with HCT-15 colon, 10.2 µM; in the experiment on HT29 colon it was 4.39 µM; with KM12 colon, 27.3 µM; with SK-MEL-2 melanoma, 41.6 µM. Also, the TGI with SK-OV-3 ovarian is 41.3 µM; in the experiment with SN12C renal, 39 µM.
As for `CN1CCN(c2ccc3c4c(cccc24)C(=O)N(CCN2CCN(CCCN4CCN(CCN5C(=O)c6cccc7c(N8CCN(C)CC8)ccc(c67)C5=O)CC4)CC2)C3=O)CC1`, the GI50 in the experiment with A549 NSCLC was 7.37 µM; in the experiment with DU-145 prostate, 7.19 µM; with HCT-15 colon it was 4.08 µM; with HT29 colon, 1.13 µM; in the experiment on KM12 colon, 4.34 µM; in the experiment on SK-OV-3 ovarian it was 9.49 µM. The GI50 was 4.02 µM in the experiment with SN12C renal and 1.59 µM with SW-620 colon. For the same compound, the TGI in the experiment with A549 NSCLC worked out at 15 µM; in the experiment on DU-145 prostate it was 17 µM; in the experiment with HCT-15 colon it was 11.3 µM; with HT29 colon it was 4.31 µM; in the experiment with KM12 colon it was 14.1 µM; with SK-OV-3 ovarian, 18.3 µM. The TGI is 11.2 µM in the experiment with SN12C renal and 50 µM in the experiment on SW-620 colon.
